Measurements taken from PMC6383986, “Fragment-Based Covalent Ligand Screening Enables Rapid Discovery of Inhibitors for the RBR E3 Ubiquitin Ligase HOIP” (Journal of the American Chemical Society, 2019).
Entries after “also recorded” stand apart in the source; their conditions may differ.

Biological target: T1, 3 × FLAG-tagged HOIP RBR from HEK293T cells (Homo sapiens, UniProt Q96EP0)
T1 construct: expressed in transfected cells; host or cells: HEK293T, transient, modified pcDNA3.1(+)
Test: Immunoprecipitation and on-bead polyubiquitination assay after in-cell labeling
Type: cell-based
Settings: 30 μM, E1, UbcH7, ubiquitin
Protocol: Supplementary Figure S12. A) Uncropped SDS gel and B) and Western Blot (FLAG antibody, 1:1000 dilution) from the immunoprecipitation (IP) of 3×FLAG HOIP RBR from HEK293T cells.
The cells had been incubated with compounds (11a) or (11i) [30 µM], or DMSO for 8 h. C) TIC traces for DMSO control, (11a)- and (11i)-treated HEK293T cell lysate after IP and tryptic digest.
D) Extracted TIC traces for the tryptic peptide […], accounting for possible cysteine labelling (iodoacetamide, (11a) or (11i)) and methionine oxidation.
Immunoprecipitation and Polyubiquitination assay
The protein concentrations of the clarified lysates were normalized with reaction buffer (50 mM Tris-HCl, pH 7.5, 1.5 mM MgCl2, 150 mM NaCl, 1 mM Na3VO4, complete protease inhibitor) to 1.5 mg/mL (final volume 500 µL, and <0.1% IGEPAL-CA630). Magnetic beads containing anti-FLAG M2 antibody (20 µL suspension per vial; Merck) were immobilized using a magnetic stand (GE Healthcare), washed with PBS (2 × 0.5 mL) and reaction buffer (2 × 0.5 mL) and then suspended in the lysate mixtures. Beads without lysate was used as control. The bead […]
A polyubiquitination assay master mix was prepared by mixing E1, UbcH7, ubiquitin, MgCl2, in buffer (50 mM HEPES, 150 mM NaCl, pH 7.5). […] All samples were analyzed by SDS PAGE and Western Blot (Figure 6C and Supplementary Figure S13) as described in sections 4.5 and 4.6. […]

T1 sequence (Q96EP0 697-1072): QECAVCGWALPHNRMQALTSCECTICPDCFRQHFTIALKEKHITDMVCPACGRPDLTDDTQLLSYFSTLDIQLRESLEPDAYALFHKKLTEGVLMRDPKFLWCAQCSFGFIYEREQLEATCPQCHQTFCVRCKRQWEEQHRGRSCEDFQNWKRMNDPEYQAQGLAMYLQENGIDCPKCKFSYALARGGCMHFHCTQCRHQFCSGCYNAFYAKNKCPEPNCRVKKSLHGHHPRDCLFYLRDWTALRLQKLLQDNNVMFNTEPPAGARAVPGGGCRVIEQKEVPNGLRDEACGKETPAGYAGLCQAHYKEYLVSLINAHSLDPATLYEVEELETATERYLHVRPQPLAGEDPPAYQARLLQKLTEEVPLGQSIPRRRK

COC(=O)/C=C/CNC(=O)c1cc2c([nH]c1=O)CCCC2 [Compound 11a]
catalytic activity of HOIP (free polyubiquitin chain formation) after in-cell labeling: significant loss of the catalytic activity; also recorded: significant decrease in free polyubiquitin chain formation
